From patent US9839629B2, “Inhibitors of the renal outer medullary potassium channel” (Merck Sharp & Dohme Corp., priority 2013, dated 2017)

Molecular target: T1, ROMK (Kir1.1) channel (Homo sapiens, UniProt P48048)
T1 sequence (P48048 1-391): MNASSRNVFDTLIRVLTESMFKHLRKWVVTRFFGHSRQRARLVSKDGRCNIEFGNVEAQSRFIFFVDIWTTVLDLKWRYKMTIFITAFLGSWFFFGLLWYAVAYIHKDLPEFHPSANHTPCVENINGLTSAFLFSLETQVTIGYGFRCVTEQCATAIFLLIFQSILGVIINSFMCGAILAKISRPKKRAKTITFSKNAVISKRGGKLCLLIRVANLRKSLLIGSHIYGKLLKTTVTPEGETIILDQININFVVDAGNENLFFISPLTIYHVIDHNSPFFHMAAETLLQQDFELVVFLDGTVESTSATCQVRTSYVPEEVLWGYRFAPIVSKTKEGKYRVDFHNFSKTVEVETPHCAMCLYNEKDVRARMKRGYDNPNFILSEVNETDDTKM
Assay: Thallium Flux Assay
Type: cell-based
Outline: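 Thallium flux assay as described in WO 2013/062900. Compounds supplied as HCl salts were tested in salt form.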

IC50	SMILES
336 nM	Cc1c(N2CCC3(CCN(C[C@@H](O)c4cnc(-n5cnnn5)cn4)CC3)CC2)c(=O)c1=O [Example 86, (R)-3-(9-(2-(5-(1H-tetrazol-1-yl)pyrazin-2-yl)-2-hydroxyethyl)-3,9-diazaspiro[5.5]undecan-3-yl)-4-methylcyclobut-3-ene-1,2-dione]
91 nM	O=C1C=C(N2CCC3(CCN(C[C@@H](O)c4ccc(-n5cnnn5)nn4)CC3)CC2)CO1 [Example 17, (R)-4-(9-(2-(6-(1H-tetrazol-1-yl)pyridazin-3-yl)-2-hydroxyethyl)-3,9-diazaspiro[5.5]undecan-3-yl)furan-2(5H)-one]
305 nM	CC1=C(N2CCC3(CCN(C[C@H](O)c4cc(-n5cnnn5)ccn4)CC3)CC2)COC1=O [Example 67, (S)-4-(9-(2-(4-(1H-tetrazol-1-yl)pyridin-2-yl)-2-hydroxyethyl)-3,9-diazaspiro[5.5]undecan-3-yl)-3-methylfuran-2(5H)-one]
14 nM	Cc1nc(-n2cnnn2)ccc1[C@@H](O)CN1CCC2(CC1)CCN(C1=CC(=O)OC1)CC2 [Example 13, (R)-4-(9-(2-hydroxy-2-(2-methyl-6-(1H-tetrazol-1-yl)pyridin-3-yl)ethyl)-3,9-diazaspiro[5.5]undecan-3-yl)furan-2(5H)-one]
275 nM	CC1=C(N2CCC3(CCN(C[C@H](O)c4ccc5c(c4C)COC5=O)CC3)[C@@H](F)C2)COC1=O [Example 34, 5-((R)-2-((R)-7-fluoro-9-(4-methyl-5-oxo-2,5-dihydrofuran-3-yl)-3,9-diazaspiro[5.5]undecan-3-yl)-1-hydroxyethyl)-4-methylisobenzofuran-1(3H)-one]
16 nM	CC1=C(N2CCC3(CCN(C[C@H](O)c4ccc(-n5cnnn5)nc4C)CC3)CC2)COC1=O [Example 45, (R)-4-(9-(2-hydroxy-2-(2-methyl-6-(1H-tetrazol-1-yl)pyridin-3-yl)ethyl)-3,9-diazaspiro[5.5]undecan-3-yl)-3-methylfuran-2(5H)-one]
7 nM	Cc1c([C@@H](O)CN2CCC3(CC2)CCN(C2=C(F)C(=O)OC2)CC3)ccc2c1COC2=O [Example 38, (R)-5-(2-(9-(4-fluoro-5-oxo-2,5-dihydrofuran-3-yl)-3,9-diazaspiro[5.5]undecan-3-yl)-1-hydroxyethyl)-4-methylisobenzofuran-1(3H)-one]
17 nM	O=C1C=C(N2CCC3(CCN(CCc4ccc5c(c4)COC5=O)CC3)CC2)CO1 [Example 1, 5-(2-(9-(5-oxo-2,5-dihydrofuran-3-yl)-3,9-diazaspiro[5.5]undecan-3-yl)ethyl)isobenzofuran-1(3H)-one]
236 nM	CC1=C(N2CCC3(CCN(C[C@H](O)c4ccc5c(c4C)COC5=O)CC3)[C@H](F)C2)COC1=O [Example 35, 5-((R)-2-((S)-7-fluoro-9-(4-methyl-5-oxo-2,5-dihydrofuran-3-yl)-3,9-diazaspiro[5.5]undecan-3-yl)-1-hydroxyethyl)-4-methylisobenzofuran-1(3H)-one]
16 nM	CC1=C(N2CCC3(CCN(C[C@H](O)c4ccc(-n5cnnn5)cc4)CC3)CC2)COC1=O [Example 49, (R)-4-(9-(2-(4-(1H-tetrazol-1-yl)phenyl)-2-hydroxyethyl)-3,9-diazaspiro[5.5]undecan-3-yl)-3-methylfuran-2(5H)-one]
22 nM	CC1=C(N2CCC3(CCN(C[C@H](O)c4cccc(-n5cnnn5)c4)CC3)CC2)COC1=O [Example 59, (R)-4-(9-(2-(3-(1H-tetrazol-1-yl)phenyl)-2-hydroxyethyl)-3,9-diazaspiro[5.5]undecan-3-yl)-3-methylfuran-2(5H)-one]
146 nM	Cc1c([C@@H](O)CN2CCC3(CC2)CCN(C2=CC(=O)OCC2)CC3)ccc2c1COC2=O [Example 93, 5-{(1R)-1-hydroxy-2-[9-(6-oxo-3,6-dihydro-2H-pyran-4-yl)-3,9-diazaspiro[5.5]undec-3-yl]ethyl}-4-methyl-2-benzofuran-1(3H)-one]
